Where “and” joins values, the source holds several entries; their conditions need not be identical. Equal values may be shown once. Inconclusive results and toxic doses are left out. Rule as the data show it: active = T/C of 150% or more; inactive = T/C below 125%.
System: L1210 leukemia ip in BDF1 mice, survival T/C
Experiment: NCI In Vivo Anticancer Drug Screen. Data for tumor model L1210 Leukemia (intraperitoneal) in B6D2F1 (BDF1) mice
Conditions: endpoint: mean survival time, higher = longer survival
Summary of the method: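 Mice bearing the transplanted tumor received compound or vehicle. Survival of the treated group was divided by that of the vehicle-treated control group to give the ratio.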

[1] = dose: 200.0 mg/kg/injection, schedule: Q01DX001 (ip), vehicle: saline
[2] = dose: 100.0 mg/kg/injection, schedule: Q01DX001 (ip), vehicle: carboxymethylcellulose (CMC)
[3] = dose: 200.0 mg/kg/injection, schedule: Q01DX001 (ip), vehicle: carboxymethylcellulose (CMC)
[4] = dose: 400.0 mg/kg/injection, schedule: Q01DX001 (ip), vehicle: carboxymethylcellulose (CMC)
[5] = dose: 100.0 mg/kg/injection, schedule: Q01DX009 (ip), vehicle: saline with Tween-80
[6] = dose: 100.0 mg/kg/injection, schedule: Q04DX003 (ip), vehicle: saline with Tween-80
[7] = dose: 200.0 mg/kg/injection, schedule: Q01DX009 (ip), vehicle: saline with Tween-80
[8] = dose: 200.0 mg/kg/injection, schedule: Q04DX003 (ip), vehicle: saline with Tween-80
[9] = dose: 400.0 mg/kg/injection, schedule: Q01DX009 (ip), vehicle: saline with Tween-80
[10] = dose: 100.0 mg/kg/injection, schedule: Q04DX002 (ip), vehicle: Klucel (hydroxypropylcellulose) (HPC)
[11] = dose: 200.0 mg/kg/injection, schedule: Q04DX002 (ip), vehicle: Klucel (hydroxypropylcellulose) (HPC)
[12] = dose: 400.0 mg/kg/injection, schedule: Q04DX002 (ip), vehicle: Klucel (hydroxypropylcellulose) (HPC)
[13] = dose: 100.0 mg/kg/injection, schedule: Q04DX003 (ip), vehicle: Klucel (hydroxypropylcellulose) (HPC)
[14] = dose: 200.0 mg/kg/injection, schedule: Q04DX003 (ip), vehicle: Klucel (hydroxypropylcellulose) (HPC)
[15] = dose: 400.0 mg/kg/injection, schedule: Q04DX003 (ip), vehicle: Klucel (hydroxypropylcellulose) (HPC)
[16] = dose: 75.0 mg/kg/injection, schedule: Q01DX001 (ip), vehicle: other

Measured: T/C

O=[N+]([O-])c1cccc2nonc12
inactive: dose: 3.12 mg/kg/injection, schedule: Q04DX002 (ip), vehicle: Klucel (hydroxypropylcellulose) (HPC) 93 % of control | dose: 6.25 mg/kg/injection, schedule: Q04DX002 (ip), vehicle: Klucel (hydroxypropylcellulose) (HPC) 109 % of control | dose: 12.5 mg/kg/injection, schedule: Q04DX002 (ip), vehicle: Klucel (hydroxypropylcellulose) (HPC) 102 % of control

CCCCCCCCCCCCOc1cccc(OCCCCCCCCCCCC)c1
inactive: dose: 100.0 mg/kg/injection, schedule: Q01DX001 (ip), vehicle: Klucel (hydroxypropylcellulose) (HPC) 92 % of control | dose: 200.0 mg/kg/injection, schedule: Q01DX001 (ip), vehicle: Klucel (hydroxypropylcellulose) (HPC) 87 % of control | dose: 400.0 mg/kg/injection, schedule: Q01DX001 (ip), vehicle: Klucel (hydroxypropylcellulose) (HPC) 87 % of control

C=CC1CN2CCC1CC2C(O)c1ccnc2ccc(OC)cc12 (stereo not given)
inactive: dose: 27.45 mg/kg/injection, schedule: Q01DX Z (ip), vehicle: other 92 % of control | dose: 54.9 mg/kg/injection, schedule: Q01DX Z (ip), vehicle: other 92 % of control | dose: 75.0 mg/kg/injection, schedule: Q01DX009 (ip), vehicle: saline with Tween-80 92 % of control | dose: 109.8 mg/kg/injection, schedule: Q01DX Z (ip), vehicle: other 94 % of control | [1] 101 % of control

CNCC1C=CCCC1 (stereo not given)
inactive: dose: 100.0 mg/kg/injection, schedule: Q04DX002 (ip), vehicle: saline 93 % of control | dose: 200.0 mg/kg/injection, schedule: Q04DX002 (ip), vehicle: saline 100 % of control

CC1([N+](=O)[O-])COP(=O)(Nc2ccc(Cl)cc2)OC1 (stereo not given)
inactive: [2] 95 % of control | [3] 93 % of control | [4] 98 % of control

COC1(OC)C2CCC1(Cl)C(Cl)=C2Cl (stereo not given)
inactive: [5] 95 % of control | [6] 93 % of control | [7] 92 % of control | [8] 91 % of control | [9] 89 % of control

CCN(N=O)c1ccc(/C=C2/C=Cc3ccccc32)cc1
inactive: [2] 95 % of control | [3] 90 % of control | [4] 101 % of control

CCCCCCCCCCc1nc(N)nc(NCCc2ccccc2)n1
inactive: [10] 106 % of control | [11] 89 % of control | [12] 100 % of control

CCOC(=O)/C(C)=C\C1C(C)=CCCC1(C)C (stereo not given)
inactive: dose: 100.0 mg/kg/injection, schedule: Q01DX009 (ip), vehicle: Klucel (hydroxypropylcellulose) (HPC) 104 % of control | dose: 200.0 mg/kg/injection, schedule: Q01DX009 (ip), vehicle: Klucel (hydroxypropylcellulose) (HPC) 102 % of control | dose: 400.0 mg/kg/injection, schedule: Q01DX009 (ip), vehicle: Klucel (hydroxypropylcellulose) (HPC) 96 % of control

O=C(Nc1ccccc1)c1ccc([N+](=O)[O-])cc1Cl
inactive: [13] 100 % of control | [14] 95 % of control | [15] 90 % of control

CCOC(=O)c1c(C)[nH]c(C)c1-c1ccccc1
inactive: [13] 112 % of control | [14] 104 % of control | [15] 105 % of control

Cc1ccc(NC(=O)c2ccccc2)cc1
inactive: [10] 95 % of control | [11] 95 % of control

O=C1OC(/C=C\c2ccccc2)=NC/1=C\c1cc(Cl)cc(Cl)c1O
inactive: [10] 108 % of control | [11] 112 % of control | [12] 108 % of control

COc1ccc(C)cc1NC(=O)Sc1ccc(Cl)cc1
inactive: dose: 50.0 mg/kg/injection, schedule: Q01DX009 (ip), vehicle: saline with Tween-80 117 % of control | [5] 95 % of control

NP(=O)(OCCCOCc1ccccc1)N(CCCl)CCCl (stereo not given)
inactive: dose: 125.0 mg/kg/injection, schedule: Q01DX001 (ip), vehicle: saline 103 % of control | dose: 250.0 mg/kg/injection, schedule: Q01DX001 (ip), vehicle: saline 108 % of control | dose: 500.0 mg/kg/injection, schedule: Q01DX001 (ip), vehicle: saline 100 % of control

Cc1cccc(Cl)c1NC(=O)CCC(=O)O
inactive: dose: 100.0 mg/kg/injection, schedule: Q01DX001 (ip), vehicle: saline 101 % of control | [1] 101 % of control | dose: 400.0 mg/kg/injection, schedule: Q01DX001 (ip), vehicle: saline 95 % of control

COC(OC)C1C=CC=CC=C1
inactive: [7] 95 % of control

COc1ccc2c(c1)c(C)cc[n+]2C
inactive: dose: 12.5 mg/kg/injection, schedule: Q01DX001 (ip), vehicle: saline 108 % of control | dose: 12.5 mg/kg/injection, schedule: Q01DX009 (ip), vehicle: saline 109 % of control | dose: 25.0 mg/kg/injection, schedule: Q01DX001 (ip), vehicle: saline 110 % of control | dose: 25.0 mg/kg/injection, schedule: Q01DX009 (ip), vehicle: saline 107 % of control | dose: 50.0 mg/kg/injection, schedule: Q01DX001 (ip), vehicle: saline 110 % of control | dose: 50.0 mg/kg/injection, schedule: Q01DX009 (ip), vehicle: saline 124 % of control

Cc1cc(S(=O)(=O)c2cc(C)c(O)c(C(=O)O)c2)cc(C(=O)O)c1O
inactive: dose: 100.0 mg/kg/injection, schedule: Q04DX002 (ip), vehicle: carboxymethylcellulose (CMC) 95 % of control | dose: 200.0 mg/kg/injection, schedule: Q04DX002 (ip), vehicle: carboxymethylcellulose (CMC) 98 % of control

CC1CCC(C(O)(C(=O)O)C2CCCCC2)CC1 (stereo not given)
inactive: [16] 104 % of control | dose: 150.0 mg/kg/injection, schedule: Q01DX001 (ip), vehicle: other 101 % of control

N=Cc1c(O)n(-c2ccccc2)c(=O)n(-c2ccccc2)c1=O
inactive: [5] 102 % of control | [7] 104 % of control | [9] 93 % of control

NC(=O)N/N=C/Cc1ccc2c(c1)OCO2
inactive: [2] 97 % of control | [3] 87 % of control | [4] 92 % of control

CCCCN1C(=O)CCC1=O
inactive: dose: 100.0 mg/kg/injection, schedule: Q04DX003 (ip), vehicle: saline 110 % of control | dose: 200.0 mg/kg/injection, schedule: Q04DX003 (ip), vehicle: saline 103 % of control | dose: 400.0 mg/kg/injection, schedule: Q04DX003 (ip), vehicle: saline 110 % of control

C/C(=C/C(=O)O)c1ccc([N+](=O)[O-])cc1
inactive: [6] 100 % of control | [8] 96 % of control | dose: 400.0 mg/kg/injection, schedule: Q04DX003 (ip), vehicle: saline with Tween-80 100 % of control

c1ccc([P+](CC[P+](c2ccccc2)(c2ccccc2)c2ccccc2)(c2ccccc2)c2ccccc2)cc1
inactive: dose: 2.5 mg/kg/injection, schedule: Q04DX003 (ip), vehicle: saline 96 % of control | dose: 5.0 mg/kg/injection, schedule: Q01DX009 (ip), vehicle: saline 96 % of control | dose: 5.0 mg/kg/injection, schedule: Q04DX003 (ip), vehicle: saline 98 % of control | dose: 10.0 mg/kg/injection, schedule: Q01DX009 (ip), vehicle: saline 96 % of control | dose: 10.0 mg/kg/injection, schedule: Q04DX003 (ip), vehicle: saline 95 % of control and 98 % of control | dose: 20.0 mg/kg/injection, schedule: Q01DX009 (ip), vehicle: saline 104 % of control

CC(=O)N1Cc2cccn2Cc2cc3c(cc21)OCO3
inactive: dose: 25.0 mg/kg/injection, schedule: Q04DX002 (ip), vehicle: Klucel (hydroxypropylcellulose) (HPC) 97 % of control | dose: 50.0 mg/kg/injection, schedule: Q04DX002 (ip), vehicle: Klucel (hydroxypropylcellulose) (HPC) 87 % of control | [10] 97 % of control

Nc1nc(Cl)nc2c1ncn2Cc1ccccc1
inactive: dose: 9.5 mg/kg/injection, schedule: Q01DX001 (ip), vehicle: other 101 % of control | dose: 19.0 mg/kg/injection, schedule: Q01DX001 (ip), vehicle: other 105 % of control | dose: 38.0 mg/kg/injection, schedule: Q01DX001 (ip), vehicle: other 101 % of control | [16] 119 % of control

c1ccc(CN2C3CCCC2CC(c2ccccc2)C3)cc1 (stereo not given)
inactive: [10] 92 % of control | [11] 87 % of control

CC(C)CCCC(C)C1CCC2C3CC4C(F)(F)C45CC4(CCC5(C)C3CCC12C)OCCO4 (stereo not given)
inactive: dose: 100.0 mg/kg/injection, schedule: Q04DX002 (ip), vehicle: other 101 % of control | dose: 200.0 mg/kg/injection, schedule: Q04DX002 (ip), vehicle: other 90 % of control | dose: 400.0 mg/kg/injection, schedule: Q04DX002 (ip), vehicle: other 93 % of control
